# Reference: BindingDB's records for doi:10.1016/j.bmcl.2005.12.017 (Abbott Laboratories, 2006)
# Target: T1, RAC-alpha serine/threonine-protein kinase [139-480,S378A,S381A,T450D,S473D] (Homo sapiens, UniProt P31749, S378A/S381A/S473D/T450D)
# T1 construct: 139-480
# Assay: Akt Kinase Assay
# Details: not given
# Protocol: The kinase assay uses His-Akt1 and a biotinylated peptide as substrate. The biotinylated peptides were immobilized on streptavidin-coated FLASH plates. After reaction, the 33P-phosphopeptide captured on the FLASH plates was measured with a TopCount Packard Instruments […] (Packard Instruments, Boston, MA).
# T1 sequence (P31749 139-480 S378A/S381A/T450D/S473D): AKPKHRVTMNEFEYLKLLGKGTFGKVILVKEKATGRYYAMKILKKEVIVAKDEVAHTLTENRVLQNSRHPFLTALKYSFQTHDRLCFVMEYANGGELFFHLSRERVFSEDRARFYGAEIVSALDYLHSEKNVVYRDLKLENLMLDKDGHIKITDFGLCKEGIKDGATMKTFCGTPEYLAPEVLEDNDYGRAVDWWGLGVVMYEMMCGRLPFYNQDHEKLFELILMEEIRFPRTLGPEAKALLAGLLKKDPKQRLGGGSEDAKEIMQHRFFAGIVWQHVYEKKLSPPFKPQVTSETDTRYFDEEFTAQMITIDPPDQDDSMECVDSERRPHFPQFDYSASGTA
row,SMILES,IC50 [nM]
1,N[C@H](COc1cncc(/C=C/c2ccnc(-n3ccc4ccccc43)c2)c1)Cc1c[nH]c2ccccc12 [1-{4-[(E)-2-{5-[(2S)-2-amino-3-(1H-indol-3-yl)propoxy]pyridin-3-yl}ethenyl]pyridin-2-yl}-1H-indole],3340
2,N[C@H](COc1cncc(/C=C/c2ccncc2)c1)Cc1csc2ccccc12 [3-[(2S)-2-amino-3-(1-benzothiophen-3-yl)propoxy]-5-[(E)-2-(pyridin-4-yl)ethenyl]pyridine],142
3,N[C@H](COc1cnc(Cl)c(/C=C/c2ccncc2)c1)Cc1c[nH]c2ccccc12 [3-[(2S)-2-amino-3-({6-chloro-5-[(E)-2-(pyridin-4-yl)ethenyl]pyridin-3-yl}oxy)propyl]-1H-indole],23
4,"N[C@H](CNc1cnc(Cl)c(/C=C/c2ccncc2)c1)CC1CNc2ccccc21 (stereo partly drawn) [N-[(2S)-2-amino-3-(2,3-dihydro-1H-indol-3-yl)propyl]-6-chloro-5-[(E)-2-(pyridin-4-yl)ethenyl]pyridin-3-amine]",79
5,N[C@H](CNc1cnc(Cl)c(/C=C/c2ccncc2)c1)Cc1c[nH]c2ccccc12 [N-[(2S)-2-amino-3-(1H-indol-3-yl)propyl]-6-chloro-5-[(E)-2-(pyridin-4-yl)ethenyl]pyridin-3-amine],19
6,N[C@H](COc1cncc(/C=C/c2ccnc(Oc3ccccc3)c2)c1)Cc1c[nH]c2ccccc12 [3-[(2S)-2-amino-3-({5-[(E)-2-(2-phenoxypyridin-4-yl)ethenyl]pyridin-3-yl}oxy)propyl]-1H-indole],6450
7,CCNc1cc(/C=C/c2cncc(OC[C@@H](N)Cc3c[nH]c4ccccc34)c2)ccn1 [4-[(E)-2-{5-[(2S)-2-amino-3-(1H-indol-3-yl)propoxy]pyridin-3-yl}ethenyl]-N-ethylpyridin-2-amine],163
8,Nc1cc(/C=C/c2cncc(OC[C@@H](N)Cc3c[nH]c4ccccc34)c2)ccn1 [4-[(E)-2-{5-[(2S)-2-amino-3-(1H-indol-3-yl)propoxy]pyridin-3-yl}ethenyl]pyridin-2-amine],121
9,N[C@H](CCc1cnc(Cl)c(/C=C/c2ccncc2)c1)Cc1c[nH]c2ccccc12 [(2R)-4-{6-chloro-5-[(E)-2-(pyridin-4-yl)ethenyl]pyridin-3-yl}-1-(1H-indol-3-yl)butan-2-amine],198
10,N[C@H](COc1cncc(/C=C/c2ccnc(Sc3ccccc3)c2)c1)Cc1c[nH]c2ccccc12 [3-[(2S)-2-amino-3-({5-[(E)-2-[2-(phenylsulfanyl)pyridin-4-yl]ethenyl]pyridin-3-yl}oxy)propyl]-1H-indole],6350
11,Brc1ccc(/C=C/CNCCOc2cncc(/C=C/c3ccncc3)c2)cc1 [[(2E)-3-(4-bromophenyl)prop-2-en-1-yl][2-({5-[(E)-2-(pyridin-4-yl)ethenyl]pyridin-3-yl}oxy)ethyl]amine],32200
12,Cn1cc(C[C@H](N)COc2cncc(/C=C/c3ccncc3)c2)c2ccccc21 [3-[(2S)-2-amino-3-({5-[(E)-2-(pyridin-4-yl)ethenyl]pyridin-3-yl}oxy)propyl]-1-methyl-1H-indole],500
13,N[C@H](COc1ccc(/C=C/c2ccncc2)cn1)Cc1ccccc1 [2-[(2S)-2-amino-3-phenylpropoxy]-5-[(E)-2-(pyridin-4-yl)ethenyl]pyridine],43000
14,CNc1cc(/C=C/c2cncc(OC[C@@H](N)Cc3c[nH]c4ccccc34)c2)ccn1 [4-[(E)-2-{5-[(2S)-2-amino-3-(1H-indol-3-yl)propoxy]pyridin-3-yl}ethenyl]-N-methylpyridin-2-amine],176
15,N[C@H](COc1cncc(/C=C/c2ccnc(SCc3ccccc3)c2)c1)Cc1c[nH]c2ccccc12 [3-[(2S)-2-amino-3-({5-[(E)-2-[2-(benzylsulfanyl)pyridin-4-yl]ethenyl]pyridin-3-yl}oxy)propyl]-1H-indole],3110
16,NCC(c1ccccc1)c1cncc(/C=C/c2ccncc2)c1 (configuration not stated) [2-phenyl-2-{5-[(E)-2-(pyridin-4-yl)ethenyl]pyridin-3-yl}ethan-1-amine],284
17,N[C@H](CNc1cncc(/C=C/c2ccncc2)c1)Cc1c[nH]c2ccccc12 [N-[(2S)-2-amino-3-(1H-indol-3-yl)propyl]-5-[(E)-2-(pyridin-4-yl)ethenyl]pyridin-3-amine],9.7
18,N[C@H](COc1cncc(/C=C/c2ccnc(NCc3ccccc3)c2)c1)Cc1c[nH]c2ccccc12 [4-[(E)-2-{5-[(2S)-2-amino-3-(1H-indol-3-yl)propoxy]pyridin-3-yl}ethenyl]-N-benzylpyridin-2-amine],147
19,N[C@H](COc1cncc(/C=C/c2ccnc(NC3CC3)c2)c1)Cc1c[nH]c2ccccc12 [4-[(E)-2-{5-[(2S)-2-amino-3-(1H-indol-3-yl)propoxy]pyridin-3-yl}ethenyl]-N-cyclopropylpyridin-2-amine],69
20,N[C@@H](Cc1ccccc1)C(=O)Nc1cncc(/C=C/c2ccncc2)c1 [(2S)-2-amino-3-phenyl-N-{5-[(E)-2-(pyridin-4-yl)ethenyl]pyridin-3-yl}propanamide],3200
21,CN(C)[C@H](COc1cncc(/C=C/c2ccncc2)c1)Cc1c[nH]c2ccccc12 [[(2S)-1-(1H-indol-3-yl)-3-({5-[(E)-2-(pyridin-4-yl)ethenyl]pyridin-3-yl}oxy)propan-2-yl]dimethylamine],1100
22,N[C@H](COc1cccc(/C=C/c2ccncc2)n1)Cc1c[nH]c2ccccc12 [3-[(2S)-2-amino-3-({6-[(E)-2-(pyridin-4-yl)ethenyl]pyridin-2-yl}oxy)propyl]-1H-indole],23300
23,COc1cc(/C=C/c2cncc(OC[C@@H](N)Cc3c[nH]c4ccccc34)c2)ccn1 [3-[(2S)-2-amino-3-({5-[(E)-2-(2-methoxypyridin-4-yl)ethenyl]pyridin-3-yl}oxy)propyl]-1H-indole],2670

# Same assay, conditions: pH 7.5; 22 °C
row,SMILES,IC50 [nM]
1,N[C@H](COc1cncc(/C=C/c2ccncc2)c1)Cc1ccc2ccccc2c1 [3-[(2S)-2-amino-3-(naphthalen-2-yl)propoxy]-5-[(E)-2-(pyridin-4-yl)ethenyl]pyridine],146
2,N[C@@H](CCc1ccccc1)COc1cncc(/C=C/c2ccncc2)c1 [3-[(2S)-2-amino-4-phenylbutoxy]-5-[(E)-2-(pyridin-4-yl)ethenyl]pyridine],8020
3,CC(C)[C@H](N)COc1cncc(/C=C/c2ccncc2)c1 [3-[(2S)-2-amino-3-methylbutoxy]-5-[(E)-2-(pyridin-4-yl)ethenyl]pyridine],19300
4,C(=C\c1cncc(OC[C@@H]2CCN2)c1)/c1ccncc1 [3-[(2S)-azetidin-2-ylmethoxy]-5-[(E)-2-(pyridin-4-yl)ethenyl]pyridine],10900
5,N#Cc1cccc(C[C@H](N)COc2cncc(/C=C/c3ccncc3)c2)c1 [3-[(2S)-2-amino-3-({5-[(E)-2-(pyridin-4-yl)ethenyl]pyridin-3-yl}oxy)propyl]benzonitrile],320
6,"N[C@H](COc1cncc(/C=C/c2ccncc2)c1)C(c1ccccc1)c1ccccc1 [3-[(2S)-2-amino-3,3-diphenylpropoxy]-5-[(E)-2-(pyridin-4-yl)ethenyl]pyridine]",6760
7,C(=C\c1cncc(OC[C@@H]2CCCN2)c1)/c1ccncc1 [3-[(E)-2-(pyridin-4-yl)ethenyl]-5-[(2S)-pyrrolidin-2-ylmethoxy]pyridine],23900
8,N[C@H](COc1cncc(/C=C/c2ccncc2)c1)Cc1cccc(O)c1 [3-[(2S)-2-amino-3-({5-[(E)-2-(pyridin-4-yl)ethenyl]pyridin-3-yl}oxy)propyl]phenol],875
9,N[C@H](COc1cncc(/C=C/c2ccncc2)c1)Cc1cccc2ccccc12 [3-[(2S)-2-amino-3-(naphthalen-1-yl)propoxy]-5-[(E)-2-(pyridin-4-yl)ethenyl]pyridine],324
